One assay has as its target EGFR (UniProt P00533). The settings on record: for inhibition: concentration not given here.
The target in assay [1] is EGFR (human) (UniProt P00533). The settings on record: a549.
Assay [2] concerns the target EGFR (human) (UniProt P00533). The settings on record: mda468.
Assay [3] addresses EGFR (murine) (UniProt P00533). The settings on record: fibroblast.
In assay [4] the target is EGFR (human) (UniProt P00533). The settings on record: a431.
Assay [5] concerns the target EGFR (human) (UniProt P00533). The settings on record: mdv-7.
The target of assay [6] is EGFR (human) (UniProt P00533). The conditions noted are these: ht-29.
Assay [7] has as its target EGFR (murine) (UniProt P00533). The settings on record: fibroblast. The source holds these as a separate data set.
The target in assay [8] is EGFR (human) (UniProt P00533). The conditions noted are these: mda231.

Inhibition and IC50 data for 16 molecules are collected here from the Kinase Knowledgebase extract (Sharma et al. 2016).

Broadly, the inhibition is the percentage by which the read-out fell short of the control. In general, IC50 refers to the concentration at which inhibition is half-maximal. Read a high IC50 as a need for much substance.

Sequence of EGFR (P00533 whole entry, looked up): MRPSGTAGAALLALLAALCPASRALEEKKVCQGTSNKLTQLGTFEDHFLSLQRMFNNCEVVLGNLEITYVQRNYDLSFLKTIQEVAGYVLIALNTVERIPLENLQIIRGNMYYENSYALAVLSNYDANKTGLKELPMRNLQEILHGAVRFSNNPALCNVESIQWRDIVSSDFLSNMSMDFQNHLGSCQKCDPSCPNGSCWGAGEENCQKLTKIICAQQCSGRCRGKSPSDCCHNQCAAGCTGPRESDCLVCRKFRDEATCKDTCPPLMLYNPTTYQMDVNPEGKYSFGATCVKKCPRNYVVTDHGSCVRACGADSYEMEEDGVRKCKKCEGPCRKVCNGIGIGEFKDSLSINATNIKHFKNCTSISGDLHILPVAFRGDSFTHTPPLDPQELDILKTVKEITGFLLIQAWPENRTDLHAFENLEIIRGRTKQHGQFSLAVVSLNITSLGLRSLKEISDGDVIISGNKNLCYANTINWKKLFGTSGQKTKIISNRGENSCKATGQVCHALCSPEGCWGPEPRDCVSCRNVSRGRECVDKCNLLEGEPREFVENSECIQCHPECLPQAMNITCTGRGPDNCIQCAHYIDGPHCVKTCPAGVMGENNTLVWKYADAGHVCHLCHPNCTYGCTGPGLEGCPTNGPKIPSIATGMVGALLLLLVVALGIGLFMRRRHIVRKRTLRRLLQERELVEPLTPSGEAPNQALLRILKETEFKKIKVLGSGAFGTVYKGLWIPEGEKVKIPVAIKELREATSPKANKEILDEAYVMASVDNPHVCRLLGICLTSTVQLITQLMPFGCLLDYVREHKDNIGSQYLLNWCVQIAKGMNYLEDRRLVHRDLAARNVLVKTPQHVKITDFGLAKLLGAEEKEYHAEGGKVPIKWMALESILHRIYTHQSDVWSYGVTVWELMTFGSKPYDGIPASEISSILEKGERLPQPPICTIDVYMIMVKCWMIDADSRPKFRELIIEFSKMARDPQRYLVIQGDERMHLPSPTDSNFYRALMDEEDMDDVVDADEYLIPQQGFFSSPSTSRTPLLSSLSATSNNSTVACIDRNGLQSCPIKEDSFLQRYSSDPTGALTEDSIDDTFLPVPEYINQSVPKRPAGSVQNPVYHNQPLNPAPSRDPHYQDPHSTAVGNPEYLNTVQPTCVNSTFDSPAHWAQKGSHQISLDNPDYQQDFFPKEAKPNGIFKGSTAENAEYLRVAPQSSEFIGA
Sequence of EGFR (human) (P00533 whole entry, looked up): as above
Sequence of EGFR (murine) (P00533 whole entry, looked up): as above

`CCOC(=O)CCc1c(S)n(C)c2ccccc12`: the inhibition at EGFR is 3%.
For the molecule `Cn1c(S)c(CCCC(=O)O)c2ccccc21`, the IC50 on EGFR came out at 23 µM.
Molecule `COC(=O)CCCc1c(S)n(C)c2ccccc12` gave an inhibition on EGFR of 2%.
Regarding `O=C(O)CCc1c(S)[nH]c2ccccc12`, the IC50 at EGFR came out at 1.3 µM.
`O=C(CCc1c(S)[nH]c2ccccc12)NCc1ccccc1`: at EGFR, the inhibition worked out at 43%.
For `CCOC(=O)CCc1c(S)[nH]c2ccccc12`, at EGFR, the inhibition was 10%.
`Cn1c(S)c(C(=O)Nc2ccccc2)c2ccccc21`: the 50% inhibitory concentration (IC50) at EGFR (human) [1] worked out at 30 µM; at EGFR (human) [2], 43 µM; in the assay with EGFR (murine) [3], 2 µM; on EGFR (human) [4], 62 µM; on EGFR (human) [5] it was 39 µM; against EGFR, 1 µM. Further, the IC50 against EGFR (human) [6] was 55 µM; in the assay with EGFR (murine) [7], 64 µM; at EGFR (human) [8], 15 µM.
Take `O=C(O)Cc1c(S)[nH]c2ccccc12`: the IC50 against EGFR turned out to be 14.9 µM.
At EGFR, `COC(=O)Cc1c(S)[nH]c2ccccc12` yielded an inhibition of 43%.
`O=C(O)CCCc1c(S)[nH]c2ccccc12` came in with an IC50 against EGFR of 6.8 µM.
As to `Cn1c(S)c(CCC(=O)O)c2ccccc21`, on EGFR, the IC50 amounted to 8.5 µM.
As for `Cn1c(S)c(C(=O)c2ccc(C(=O)O)cc2)c2ccccc21`, the IC50 against EGFR is 8.7 µM.
At EGFR, `Cn1c(S)c(C(=O)Nc2ccccc2)c2cc(Cl)ccc21` displayed an IC50 of 9 µM.
For the molecule `O=C(Cc1c(S)[nH]c2ccccc12)NCc1ccccc1`, the IC50 at EGFR stood at 25 µM.
Still for that read-out and setting: with `NC(=O)CCc1c(S)[nH]c2ccccc12` the figure was 22 µM.
On EGFR, `CCOC(=O)Cc1c(S)n(C)c2ccccc12` registered an inhibition of 4%.
